Experimental data: patent US20160114000A1 (Merck Sharp & Dohme, published 2016)
*1 amine or outer side, *2 acyl side, *3 side chain or, on linkers, in order; H or OH if unused. Where a SMILES comes first, the peptide text is derived from it. Side-chain parts run from the residue outwards. [ ]: non-standard residue; d: D form. The star is where a group is joined. Phe(4-CH2NH2) = NCc1ccc(C[C@H](N)C(=O)O)cc1; γGlu = O=C(O)[C@H](CCC(=O)[*:2])N[*:1]; Palmitoyl = CCCCCCCCCCCCCCCC(=O)*

Tests used:
[1] = molecular target: T1, human GCGR (Homo sapiens, UniProt P47871); assay: cAMP protocol, cells expressing human GCGR; assay type: cell-based; conditions: for EC50: cAMP production, 20% human serum in assay buffer; for hGCGR/hGLP1R (hTone): ratio of EC50 at human GCGR to EC50 at human GLP1R
T1 construct: expressed in transfected cells; grown under Geneticin and Hygromycin selection
Procedure: The cAMP protocol was as follows.
(§1) Peptides were dissolved in 100% DMSO and serially diluted to generate 11 point titrations. The peptide solutions were then transferred into 384-well assay plates (150 nL/well). Assay ready frozen cells expressing human GLP-1R or human GCGR were suspended in growth media consisting of DMEM/F12 medium (GIBCO), 10% FBS (GIBCO), lx P/S (GIBCO), 800 μg/mL Geneticin (GIBCO), and 300 μg/mL Hygromycin (Invitrogen). Cells were then diluted in assay buffer consisting of PBS (GIBCO), 7.5% BSA (Perkin Elmer), 100 μM RO 20-1724 (Sigma), and 20% human serum (MP Biomedical). The cell suspensions (15 μL) were then added to the assay plates containing the peptide solutions (30,000 cells/well for human GCGR; 20,000 cells/well for GLP1R). The cells were incubated for 1 hour at room temperature in the dark. Production of cAMP was determined using HitHunter™ cAMPXS kits (DiscoverX). ED buffer (20 μL) was then added to each well and the plates were incubated for 1 hour at room temperature in the dark. Subsequently, EA buffer (20 μL) was added to each well, and the plates were incubated for 1-18 hours at room temperature in the dark. Luminescence was measured using an EnVision Multilabel plate reader (Perkin Elmer). EC50 values were calculated using ADA data analyzer software.

[2] = molecular target: T2, human GLP-1R (Homo sapiens, UniProt P43220); assay: cAMP protocol, cells expressing human GLP-1R; assay type: cell-based; conditions: cAMP production, 20% human serum in assay buffer; read-out: GLPR1 EC50 (nM) human
T2 construct: expressed in transfected cells; grown under Geneticin and Hygromycin selection
Procedure: The cAMP protocol was as follows.
as §1

[3] = system: diet-induced obese (DIO) mice (strain C57Bl6/NTac); assay: Cumulative body weight change (grams) in DIO mice, Example 18; assay type: in vivo; conditions: day 9; for weight loss: 9 nmol/kg daily
Procedure: Mice were administered a vehicle control or a dose of a peptide daily for nine days. […] The peptide of SEQ ID NO: 9 was administered at doses of 9 and 25 nmol/kg. Cumulative body weight change (grams) was measured each day of the study except on day 3. Results are shown in FIG. 1 and are expressed as mean±SEM.

[4] = system: DIO mice (strain C57Bl6/NTac); assay: Body weight change (%) relative to vehicle in DIO mice, second study, Example 19; assay type: in vivo; conditions: eight days
Procedure: In addition, the peptide of SEQ ID NO: 8 was administered at 15 nmol/kg, while the peptide of SEQ ID NOs: 10 and 11 were administered at 3 nmol/kg. Body weight was measured daily for eight days and body weight change is expressed as percent relative to vehicle (FIG. 2).

[5] = system: DIO mice (strain C57Bl6/NTac); assay: Ambient glucose levels in DIO mice, Example 21; assay type: in vivo; conditions: for changes in ambient glucose: 9 nmol/kg, after 9 days of dosing
Procedure: In addition to cumulative body weight change, ambient glucose levels of the DIO mice (strain C57Bl6/NTac) were measured periodically throughout the study.

[6] = system: DIO mice (strain C57Bl6/NTac); assay: Cumulative food intake in DIO mice, Example 20; assay type: in vivo; conditions: 3 nmol/kg, after 8 days of dosing, vs vehicle
Description: For the studies in Examples 18, 19, 20, and 21, diet induced obesity (DIO) mice (strain C57Bl6/NTac; 20 weeks on a high fat diet, about 47 g) were divided into groups of eight mice per group and the initial average body weight, food intake and basal glucose of each group were matched before peptide administration. Each group of mice was subcutaneously injected daily with a dose of Co-agonist Peptide or vehicle control for 7 to 10 days. The peptides tested in this study were Co-agonist Peptides 1, 2, 3, 4, 5, and 6 (SEQ ID NOs: 6, 7, 8, 9, 10, and 11, respectively) at the doses that varied from 3 nmol/kg to 25 nmol/kg. Body weight, food intake and basal glucose were measured periodically during treatment.

T2 sequence (P43220 24-463): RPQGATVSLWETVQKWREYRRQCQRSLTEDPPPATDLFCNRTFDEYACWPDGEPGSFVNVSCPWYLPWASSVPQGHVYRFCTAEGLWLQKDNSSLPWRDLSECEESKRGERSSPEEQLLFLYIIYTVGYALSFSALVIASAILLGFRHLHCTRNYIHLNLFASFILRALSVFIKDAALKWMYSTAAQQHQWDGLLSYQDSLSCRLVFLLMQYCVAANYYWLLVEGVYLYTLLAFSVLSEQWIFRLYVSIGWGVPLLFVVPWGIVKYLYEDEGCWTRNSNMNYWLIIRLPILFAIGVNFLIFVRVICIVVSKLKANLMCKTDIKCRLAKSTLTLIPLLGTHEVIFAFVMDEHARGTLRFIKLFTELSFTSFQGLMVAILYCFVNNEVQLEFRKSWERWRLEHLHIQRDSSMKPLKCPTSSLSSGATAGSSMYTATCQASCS
T1 sequence (P47871 26-477): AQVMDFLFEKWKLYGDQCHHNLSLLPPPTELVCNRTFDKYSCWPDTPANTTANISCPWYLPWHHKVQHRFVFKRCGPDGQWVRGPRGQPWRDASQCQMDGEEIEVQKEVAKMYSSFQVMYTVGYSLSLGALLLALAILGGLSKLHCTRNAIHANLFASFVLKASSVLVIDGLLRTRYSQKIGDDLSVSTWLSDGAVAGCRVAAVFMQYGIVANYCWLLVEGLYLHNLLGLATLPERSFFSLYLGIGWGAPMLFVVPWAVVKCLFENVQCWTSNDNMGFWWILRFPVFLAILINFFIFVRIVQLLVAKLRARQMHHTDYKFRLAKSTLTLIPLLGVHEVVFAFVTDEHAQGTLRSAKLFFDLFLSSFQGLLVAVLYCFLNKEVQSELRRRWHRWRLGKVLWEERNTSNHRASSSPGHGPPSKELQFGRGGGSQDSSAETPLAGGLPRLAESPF

Row | Structure (SMILES) | EC50 [1] [nM] | hGCGR/hGLP1R (hTone) [1] | EC50 [2] [nM] | weight loss [3] | weight loss, percent relative to vehicle ([4]; 9 nmol/kg daily) | changes in ambient glucose [5] | body weight loss ([3]; 25 nmol/kg daily) [grams] | decrease in ambient glucose compared to vehicle ([5]; 25 nmol/kg, second day of dosing) [mg/dL] | weight loss, percent relative to vehicle ([4]; 3 nmol/kg daily) | food intake [6]
1 | CCCCCCCCCCCCCCCC(=O)N[C@@H](CCC(=O)NCCCC[C@H](NC(=O)[C@H](CC(=O)O)NC(=O)[C@H](CO)NC(=O)[C@@H](NC(=O)[C@H](Cc1ccccc1)NC(=O)[C@@H](NC(=O)CNC(=O)[C@H](CCC(N)=O)NC(=O)[C@@H](CO)NC(=O)[C@@H](N)Cc1c[nH]cn1)[C@@H](C)O)[C@@H](C)O)C(=O)N[C@@H](CO)C(=O)N[C@@H](CCCCN)C(=O)N[C@@H](Cc1ccc(O)cc1)C(=O)N[C@@H](CC(C)C)C(=O)N[C@@H](CC(=O)O)C(=O)N[C@H](C(=O)N[C@@H](CCCNC(=N)N)C(=O)N[C@@H](C)C(=O)N[C@@H](C)C(=O)N[C@@H](CCC(N)=O)C(=O)N[C@@H](CC(=O)O)C(=O)N[C@@H](Cc1ccccc1)C(=O)N[C@H](C(=O)N[C@@H](CCC(N)=O)C(=O)N[C@@H](Cc1c[nH]c2ccccc12)C(=O)N[C@@H](CC(C)C)C(=O)N[C@@H](CC(C)C)C(=O)N[C@@H](CC(=O)O)C(=O)N[C@H](C(N)=O)[C@@H](C)O)C(C)C)C(C)C)C(=O)O [SEQ ID NO: 7] (H-H[dS]QGTFTSDK([γGlu-Palmitoyl])SKYLDVRAAQDFVQWLLDT-NH2; N-terminus assumed) | 0.041 | 0.30 | 0.16 | ~3 grams | approximately 5% | did not exhibit significant changes |  |  |  | 
2 | CCCCCCCCCCCCCCCC(=O)N[C@@H](CCC(=O)N[C@@H](CCC(=O)NCCCC[C@H](NC(=O)[C@H](CC(=O)O)NC(=O)[C@H](CO)NC(=O)[C@@H](NC(=O)[C@H](Cc1ccccc1)NC(=O)[C@@H](NC(=O)CNC(=O)[C@@H](NC(=O)C(C)(C)NC(=O)[C@@H](N)Cc1c[nH]cn1)C(C)C)[C@@H](C)O)[C@@H](C)O)C(=O)N[C@@H](CO)C(=O)N[C@@H](CCCCN)C(=O)N[C@@H](Cc1ccc(O)cc1)C(=O)N[C@@H](CC(C)C)C(=O)N[C@@H](CC(=O)O)C(=O)NC(C)(C)C(=O)N[C@@H](CCCNC(=N)N)C(=O)N[C@@H](C)C(=O)N[C@@H](C)C(=O)N[C@@H](CCC(N)=O)C(=O)N[C@@H](CC(=O)O)C(=O)N[C@@H](Cc1ccccc1)C(=O)N[C@H](C(=O)N[C@@H](CCC(N)=O)C(=O)N[C@@H](Cc1c[nH]c2ccccc12)C(=O)N[C@@H](CC(C)C)C(=O)N[C@@H](CCCC)C(=O)N[C@@H](CC(=O)O)C(=O)N[C@H](C(N)=O)[C@@H](C)O)C(C)C)C(=O)O)C(=O)O [SEQ ID NO: 9] | 0.89 | 8.98 | 0.1 | ~3 grams | approximately 5% | did not exhibit significant changes | 10.5 | -75 |  | 
3 | CCCCCCCCCCCCCCCC(=O)N[C@@H](CCC(=O)N[C@@H](CCC(=O)NCCCC[C@H](NC(=O)[C@H](CC(=O)O)NC(=O)[C@H](CO)NC(=O)[C@@H](NC(=O)[C@H](Cc1ccccc1)NC(=O)[C@@H](NC(=O)CNC(=O)[C@H](CCC(N)=O)NC(=O)[C@@H](CO)NC(=O)[C@@H](N)Cc1c[nH]cn1)[C@@H](C)O)[C@@H](C)O)C(=O)N[C@@H](CO)C(=O)N[C@@H](CCCCN)C(=O)N[C@@H](Cc1ccc(O)cc1)C(=O)N[C@@H](CC(C)C)C(=O)N[C@@H](CC(=O)O)C(=O)N[C@@H](CCC(=O)O)C(=O)N[C@@H](CCCNC(=N)N)C(=O)N[C@@H](C)C(=O)N[C@@H](C)C(=O)N[C@@H](CCC(N)=O)C(=O)N[C@@H](CC(=O)O)C(=O)N[C@@H](Cc1ccccc1)C(=O)N[C@H](C(=O)N[C@@H](CCC(N)=O)C(=O)N[C@@H](Cc1c[nH]c2ccccc12)C(=O)N[C@@H](CC(C)C)C(=O)N[C@@H](CC(C)C)C(=O)N[C@@H](CC(=O)O)C(=O)N[C@H](C(N)=O)[C@@H](C)O)C(C)C)C(=O)O)C(=O)O [SEQ ID NO: 11, reference compound] |  | 1.30 |  | approximately 13 grams |  |  |  |  | no weight loss efficacy | no change in food intake

Second part, led by results:

Row | EC50 [1] [nM] | hGCGR/hGLP1R (hTone) [1] | EC50 [2] [nM] | Structure (SMILES) | weight loss [3] | weight loss, percent relative to vehicle ([4]; 9 nmol/kg daily) | changes in ambient glucose [5] | body weight loss ([3]; 25 nmol/kg daily) [grams] | decrease in ambient glucose compared to vehicle ([5]; 25 nmol/kg, second day of dosing) [mg/dL] | weight loss, percent relative to vehicle ([4]; 3 nmol/kg daily) | food intake [6]
4 |  | 0.90 |  | CCCCCCCCCCCCCCCC(=O)N[C@@H](CCC(=O)N[C@@H](CCC(=O)NCCCC[C@H](NC(=O)[C@H](CC(=O)O)NC(=O)[C@H](CO)NC(=O)[C@@H](NC(=O)[C@H](Cc1ccccc1)NC(=O)[C@@H](NC(=O)CNC(=O)[C@H](CCC(N)=O)NC(=O)[C@@H](CO)NC(=O)[C@@H](N)Cc1c[nH]cn1)[C@@H](C)O)[C@@H](C)O)C(=O)N[C@@H](CO)C(=O)N[C@@H](CCCCN)C(=O)N[C@@H](Cc1ccc(O)cc1)C(=O)N[C@@H](CC(C)C)C(=O)N[C@@H](CC(=O)O)C(=O)N[C@@H](C)C(=O)N[C@@H](CCCNC(=N)N)C(=O)N[C@@H](C)C(=O)N[C@@H](C)C(=O)N[C@@H](CCC(N)=O)C(=O)N[C@@H](CC(=O)O)C(=O)N[C@@H](Cc1ccccc1)C(=O)N[C@H](C(=O)N[C@@H](CCC(N)=O)C(=O)N[C@@H](Cc1c[nH]c2ccccc12)C(=O)N[C@@H](CC(C)C)C(=O)N[C@@H](CC(C)C)C(=O)N[C@@H](CC(=O)O)C(=O)N[C@H](C(N)=O)[C@@H](C)O)C(C)C)C(=O)O)C(=O)O [SEQ ID NO: 10] | approximately 13 grams |  |  |  |  | approximately 17% | significant suppression of food intake
5 | 0.05 | 0.98 | 0.05 | CCCCCCCCCCCCCCCC(=O)N[C@@H](CCC(=O)N[C@@H](CCC(=O)NCc1ccc(C[C@H](NC(=O)[C@H](CC(=O)O)NC(=O)[C@H](CO)NC(=O)[C@@H](NC(=O)[C@H](Cc2ccccc2)NC(=O)[C@@H](NC(=O)CNC(=O)[C@H](CCC(N)=O)NC(=O)[C@@H](CO)NC(=O)[C@@H](N)Cc2c[nH]cn2)[C@@H](C)O)[C@@H](C)O)C(=O)N[C@@H](CO)C(=O)N[C@@H](CCCCN)C(=O)N[C@@H](Cc2ccc(O)cc2)C(=O)N[C@@H](CC(C)C)C(=O)N[C@@H](CC(=O)O)C(=O)N[C@@H](C)C(=O)N[C@@H](CCCNC(=N)N)C(=O)N[C@@H](C)C(=O)N[C@@H](C)C(=O)N[C@@H](CCC(N)=O)C(=O)N[C@@H](CC(=O)O)C(=O)N[C@@H](Cc2ccccc2)C(=O)N[C@H](C(=O)N[C@@H](CCC(N)=O)C(=O)N[C@@H](Cc2c[nH]c3ccccc23)C(=O)N[C@@H](CC(C)C)C(=O)N[C@@H](CC(C)C)C(=O)N[C@@H](CC(=O)O)C(=O)N[C@H](C(N)=O)[C@@H](C)O)C(C)C)cc1)C(=O)O)C(=O)O [SEQ ID NO: 17, His^1-D-Ser^2-Gln-Gly-Thr-Phe-Thr-Ser-Asp-pAF^10(γGlu-γGlu-C16)-Ser-Lys-Tyr-Leu-Asp^15-Ala^16-Arg-Ala-Ala-Gln-Asp-Phe^22-Val^23-Gln-Trp^25-Leu-Leu-Asp-Thr-CONH2] (H-H[dS]QGTFTSD[Phe(4-CH2NH2)]([γGlu-γGlu-Palmitoyl])SKYLDARAAQDFVQWLLDT-NH2) |  |  |  |  |  |  | 
